Laboratory results taken from patent US11304963B2, “Methods of medical treatment with SUR1-TRPM4 channel inhibitors” (BIOGEN CHESAPEAKE LLC, priority 2016, dated 2022).

Legend:
[1] = system: cerebral edema-related side effects; test: Clinical trial of glyburide in patients undergoing CAR-T therapy, surgical excision of a brain tumor, and/or diagnosed with cerebral edema; assay type: in vivo, human; settings: 0.5-3.0 mg/day
Protocol: (§1) In one arm, glyburide is administered as a bolus followed by continuous infusion.
(§2) In a second arm, glyburide is administered via a transdermal patch or gel.
(§3) In a third arm, glyburide is administered via injection, e.g., intravenous infusion.
(§4) In a fourth arm, glyburide is administered orally.
The study duration is days up to weeks.
Plasma levels of glyburide are determined daily.
The control group is matched for age, gender, and pre-operative stage.
(§5) Each patient is monitored via blood sampling and MRI. A diagnostic contrast-enhanced MRI of the brain is performed prior to inclusion in the study.
(§6) The following comparisons are made:
(§7) Occurrence of one or more cerebral edema-related side effects: • Headache • Neck pain or stiffness • Nausea or vomiting • Dizziness • Irregular breathing • Vision loss or changes • Memory loss • Inability to walk • Difficulty speaking • Stupor • Seizures • Loss of consciousness

[2] = system: cerebral edema-related side effects; test: Clinical trial of glyburide in patients with brain tumors or metastasis undergoing radiation therapy; assay type: in vivo, human; settings: 0.5-3.0 mg/day
Protocol: as §1, §2, §3, §4
The study duration is weeks to months.
Plasma levels of glyburide are determined weekly.
The control group is matched for age, gender, and pre-radiation therapy stage.
as §5, §6, §7

migraine = test: Clinical trial of glyburide for the prevention of migraine; assay type: in vivo, human; settings: patients with a history of migraine; after 12 weeks of treatment; 0.5-3.0 mg/day
Protocol: This is a randomized, double-blind, placebo-controlled, parallel Group, dose-ranging study to investigate the efficacy, safety and tolerability of glyburide for the prevention of migraine.
as §1, §2, §3, §4
The study duration is several days up to one week.
Number of migraine headache days during weeks 9-12 of the treatment period.
Change in Scores From Completeness of Response Survey (CORS) (Time Frame: Visit 1 (screening) and Visit 2 (study completion following 2-month treatment period)).
CORS scores for Pain (0-4), Associated Symptoms (0-4), Limbic/Affective Symptoms (0-5), and Speed of Return to Functionality (1-5), represent outcome measures that are relevant to patients. Higher scores represent better treatment efficacy.
The analysis compares CORS scores for usual treatment (pre-study) versus glyburide (study medication).

[3] = Plasma pharmacokinetics of glyburide, bolus injection followed by 72 hours continuous infusion, healthy adult subjects; settings: for Metabolite exposure versus administered dose of RP-1127: 0.4 mg/day vs 3.0 mg/day; for Metabolite level as share of the glyburide steady-state concentration: on average; for Average plasma metabolite concentration: through 72.5 hours after the initial bolus injection
Protocol: The two groups are referred to as the 0.4 mg/day group and the 3.0 mg/day group, respectively.

subjects with LHI = test: Mortality study in 77 subjects with LHI given Cirara and/or tPA; assay type: in vivo, human; settings: Group 1: tPA and a placebo; 22 subjects with LHI; tPA within 4.5 hours of stroke onset
Protocol: As used herein, the term “placebo” refers to an ostensibly pharmaceutical formulation with no pharmaceutically active agent, or lacks the particular pharmaceutical agent of interest in a given study. In the examples disclosed herein, the placebo is lacking the SUR1-TRPM4 channel inhibitor. As used herein, the term “Cirara” refers to a commercially available intravenous formulation of glyburide. In this example, tPA was administered in accordance with current clinical guidelines for managing ischemic stroke within 4.5 hours of stroke onset (Jauch et al. 2013).
The adverse outcome examined in the study was death. This was for exemplary purposes only and is not intended to be limiting.

## COc1ccc(Cl)cc1C(=O)NCCc1ccc(S(=O)(=O)NC(=O)NC2CCCCC2)cc1 [Glyburide, glyburide]
[1]
  Cerebral edema-related side effects compared with the control group: significantly reduced or inhibited
[2]
  Cerebral edema-related side effects compared with the control group: significantly reduced or inhibited
migraine
  Migraine outcome measures compared with the placebo group: significantly improved

## COc1ccc(Cl)cc1C(=O)NCCc1ccc(S(=O)(=O)NC(=O)NC2CCC(O)CC2)cc1 (centres unmarked) [M1]
[3]; 0.4 mg/day dose group
  Time plasma metabolite levels first detected after the initial bolus RP-1127 IV injection: 1 h
[3]
  Metabolite exposure versus administered dose of RP-1127: approximately proportional to the administered dose
  Metabolite level as share of the glyburide steady-state concentration: 18%
[3]; 3.0 mg/day dose group
  Time plasma metabolite levels first detected after the initial bolus RP-1127 IV injection: 0.167 h

## COc1ccc(Cl)cc1C(=O)NCCc1ccc(S(=O)(=O)NC(=O)NC2CCCC(O)C2)cc1 (centres unmarked) [M2]
[3]; 0.4 mg/day dose group
  Time plasma metabolite levels first detected after the initial bolus RP-1127 IV injection: 2 h
  Average plasma metabolite concentration: ≤ 0.19 ng/mL
[3]
  Metabolite exposure versus administered dose of RP-1127: approximately proportional to the administered dose
  Metabolite level as share of the glyburide steady-state concentration: 6%
[3]; 3.0 mg/day dose group
  Time plasma metabolite levels first detected after the initial bolus RP-1127 IV injection: 0.333 h
  Average plasma metabolite concentration: ≤ 1.4 ng/mL

## tPA: Tissue plasminogen activator, a class of strong blood clot dissolving medicines
Subjects with LHI
  Mortality Rate: 41%
